Reference: patent US11384097B2, “Tetrahydroisoquinoline derivative, preparation method therefor and use thereof” (ZHEJIANG HISUN PHARMACEUTICAL CO., LTD., priority 2018, dated 2022)
Where two headings read alike, the source gives them in different places.

Key:
[1] = Pharmacokinetic study in SD rats (intravenous injection and intragastric administration); type: in vivo, Sprague Dawley (SD) rats; conditions: male, Sprague-Dawley, rat, plasma; for half-life: read-out: Half-life T1/2 (converted); for AUC(0-inf): read-out: area under curve AUC0-∞; for MRT: read-out: residence time MRT
Description: Test Example 3. Oral Pharmacokinetic Studies of the Compounds of the Present Disclosure in SD Rats
SD rats were used as the experimental animal. The rats were intravenously injected or intragastrically administered with the compounds of the present disclosure, and the drug concentrations in plasma at different times were tested by LC/MS/MS methods, so as to research the pharmacokinetic characteristics of compounds of present disclosure in rats.
Forty-eight healthy adult Sprague Dawley (SD) male rats were purchased from Weitong Lihua Laboratory Animal Technology Co., Ltd., production license number: 11400700271077.
48 healthy adult male SD rats were fasted overnight and administered via tail vein injection (at a dosage of 1 mg/kg) and intragastrically administered (at a dosage of 10 mg/kg), respectively. The rats were fed 4 h after the administration.
About 0.2 mL of blood was collected from the jugular vein before administering and at 0.083 hours, 0.25 hours, 0.5 hours, 1 hour, 2 hours, 4 hours, 8 hours, 12 hours, and 24 hours after administering, and heparin sodium was used for anticoagulation. Blood samples were collected and placed on ice, and plasma was separated by centrifugation (centrifugation conditions: 1500 g, 10 min). The collected plasma was stored at −40° C.-20° C. before analysis.
10 μL of plasma sample was taken and 400 μL of acetonitrile (containing internal standard working solution, comprising 5 ng/mL verapamil and 50 ng/mL glibenclamide) was added. The resulting mixture was vortexed for 10 minutes, and centrifuged at 3700 rpm for 10 minutes. 70 μL of the supernatant was taken, and […] of water was added. The resulting mixture was vortexed for 10 minutes, and 2 μL of the mixture was transferred to the LC-MS/MS for sample analysis.

Human AT2R = target: T1, Human AT2R (Homo sapiens, UniProt P50052); assay: Antagonistic activity assay on human AT2R ligand binding (Tag-lite HTRF, Tb-labeled-AT2R cells); conditions: AT2 ligand binding, red agonist fluorescent ligand
T1 construct: Terbium (Tb) donor label on the receptor; From my own knowledge, the Tag-lite format usually uses an N-terminal SNAP-tag fusion labelled with Lumi4-Tb; expressed in transfected cells
T1 sequence (P50052 1-363): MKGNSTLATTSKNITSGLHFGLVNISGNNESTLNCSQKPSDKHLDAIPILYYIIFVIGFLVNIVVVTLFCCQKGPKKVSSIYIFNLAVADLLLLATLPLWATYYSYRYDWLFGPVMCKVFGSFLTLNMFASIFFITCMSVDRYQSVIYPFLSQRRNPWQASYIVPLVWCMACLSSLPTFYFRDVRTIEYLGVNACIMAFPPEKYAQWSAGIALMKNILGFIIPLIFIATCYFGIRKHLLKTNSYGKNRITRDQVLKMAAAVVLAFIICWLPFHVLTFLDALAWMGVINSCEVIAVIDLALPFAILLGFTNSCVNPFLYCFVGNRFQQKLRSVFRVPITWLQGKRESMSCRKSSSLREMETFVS
Description: Antagonistic Activity Assay of the Compound of the Present Disclosure on Human AT2R Ligand Binding
According to standard methods, all compounds were dissolved in dimethyl sulfoxide and prepared as 10 mM stock solutions.
(3) Each of the diluted compound in step (2) was transferred to a working plate (3657, Corning) at 160 nL/well, at 200 g, at room temperature for 1 minute;
(4) 40 μl 1×TLB was added to the above working plate, and it was centrifuged at 200 g (centrifugal force) at room temperature for 1 minute, shook on a shaker for 15 minutes to mix well, and centrifuged at 200 g (working concentration of the compound was 4×) at room temperature for 1 minute for later use;
(6) 5 mL 1×TLB was taken in a 15 mL centrifuge tube;
(7) a Tb-labeled-AT2R cells were frozen and thawed in a 37° C. water bath until the ice was completely melted (1-2 minutes);
(8) The frozen and thawed cells were rapidly transferred to the 1×TLB in step (6), and the resulting solution was mixed gently, and then centrifuged at 1200 g at room temperature for 5 minutes;
After being mixed well, the resulting mixture was placed at room temperature for late use;
(11) The reaction plate was centrifuged at 200 g at room temperature for 1 minute, and stood for 1 hour at room temperature of 25° C., and then it was centrifuged at 200 g at room temperature for 1 minute. The data was collected using Envision HTRF microplate reader, and IC50 was calculated using a nonlinear fitting formula.

[2] = iv, Injection (1 mg/kg), tail vein

| Structure (SMILES) | IC50 (Human AT2R) [nM] | further results |
| --- | --- | --- |
| COc1ccc2c(c1OCc1ccccc1)CC(C(=O)NS(=O)(=O)N(C)C)N(c1nc3ccccc3o1)C2 (centres unmarked) [Example 9, 2-(Benzo[d]oxazol-2-yl)-5-(benzyloxy)-N—(N,N-dimethylsulfonyl)-6-methoxy-1,2,3,4-tetrahydroisoquinoline-3-carboxamide] |  | bioavailability ([1]; Oral (10 mg/kg) vs Injection (1 mg/kg), read-out: Bioavailability F(%)): 71.1%; half-life ([1]; Oral (10 mg/kg)): 126 ± 96 min; AUC(0-inf) ([1]; Oral (10 mg/kg)): 18100 ± 5400 ng·h/mL; Cmax ([1]; Oral (10 mg/kg), read-out: blood concentration Cmax): 9470 ± 5890 ng/mL; MRT ([1]; Oral (10 mg/kg)): 2.2 ± 0.8 h; half-life [1, 2]: 78 ± 6 min; AUC(0-inf) [1, 2]: 2550 ± 720 ng·h/mL; MRT [1, 2]: 1.3 ± 0.2 h |
| COc1ccc2c(c1OCc1ccccc1)C[C@@H](C(=O)O)N(c1nc3ccc(Cl)cc3o1)C2 [Example 16, (S)-5-(benzyloxy)-2-(6-chlorobenzo[d]oxazol-2-yl)-6-methoxy-1,2,3,4-tetrahydroisoquinoline-3-carboxylic acid] | 36 |  |
| COc1ccc2c(c1COc1ccccc1)C[C@@H](C(=O)NS(=O)(=O)N(C)C)N(c1nc3ccc(F)cc3o1)C2 [Example 20, (S)—N—(N,N-dimethylaminosulfonyl)-2-(6-fluorobenzo[d]oxazol-2-yl)-6-methoxy-5-(phenoxymethyl)-1,2,3,4-tetrahydroisoquinoline-3-carboxamide] | 26 |  |
| COc1ccc2c(c1COc1ccccc1)C[C@@H](C(=O)NS(=O)(=O)C1CC1)N(c1nc3ccc(F)cc3o1)C2 [Example 21, (S)—N-(cyclopropylsulfonyl)-2-(6-fluorobenzo[d]oxazol-2-yl)-6-methoxy-5-(phenoxymethyl)-1,2,3,4-tetrahydroisoquinoline-3-carboxamide] | 36 |  |
| COc1ccc2c(c1OCc1ccccc1)C[C@@H](C(=O)NS(C)(=O)=O)N(c1nc3ccc(F)cc3o1)C2 [Example 26, (S)-5-(Benzyloxy)-2-(6-fluorobenzo[d]oxazol-2-yl)-6-methoxy-N-(methylsulfonyl)-1,2,3,4-tetrahydroisoquinoline-3-carboxamide] | 37 |  |
| COc1ccc2c(c1OCc1ccc(C(F)(F)F)cc1)C[C@@H](C(=O)O)N(c1nc3ccc(F)cc3o1)C2 [Example 38, (S)-2-(6-fluorobenzo[d]oxazol-2-yl)-6-methoxy-5-((4-(trifluoromethyl)benzyl)oxy)-1,2,3,4-tetrahydroisoquinoline-3-carboxylic acid] | 11 |  |
| COc1ccc(COc2c(OC)ccc3c2C[C@@H](C(=O)O)N(c2nc4ccc(C#N)cc4o2)C3)cn1 [Example 43, (S)-2-(6-cyanobenzo[d]oxazol-2-yl)-6-methoxy-5-((6-methoxypyridin-3-yl)methoxy)-1,2,3,4-tetrahydroisoquinoline-3-carboxylic acid] | 33 |  |
| COc1ccc(COc2c(OC)ccc3c2C[C@@H](C(=O)O)N(c2nc4ccc(C#N)cc4o2)C3)nc1 [Example 44, (S)-2-(6-cyanobenzo[d]oxazol-2-yl)-6-methoxy-5-((5-methoxypyridin-2-yl)methoxy)-1,2,3,4-tetrahydroisoquinoline-3-carboxylic acid] | 33 |  |
| CCS(=O)(=O)NC(=O)[C@@H]1Cc2c(ccc(OC)c2OCc2ccc(OC)cc2)CN1c1nc2ccc(F)cc2o1 [Example 45, (S)—N-(ethylsulfonyl)-2-(6-fluorobenzo[d]oxazol-2-yl)-6-methoxy-5-((4-methoxybenzyl)oxy)-1,2,3,4-tetrahydroisoquinoline-3-carboxamide] | 6 |  |
| COc1ccc(COc2c(OC)ccc3c2C[C@@H](C(=O)NS(=O)(=O)N(C)C)N(c2nc4ccc(F)cc4o2)C3)cc1 [Example 46] | 5 |  |
